From US6727277B1, “Compounds affecting cholesterol absorption” (Kansas State University Research Foundation, priority 2002, dated 2004)

Tests used:
[1] = target: T1, cholesterol ester transfer protein (CETP) (Homo sapiens, UniProt P11597); experiment: Inhibition of CETP, purified CETP preparation; assay type: biochemical; conditions: FIG. 3, FIG. 4
T1 sequence (P11597 18-493): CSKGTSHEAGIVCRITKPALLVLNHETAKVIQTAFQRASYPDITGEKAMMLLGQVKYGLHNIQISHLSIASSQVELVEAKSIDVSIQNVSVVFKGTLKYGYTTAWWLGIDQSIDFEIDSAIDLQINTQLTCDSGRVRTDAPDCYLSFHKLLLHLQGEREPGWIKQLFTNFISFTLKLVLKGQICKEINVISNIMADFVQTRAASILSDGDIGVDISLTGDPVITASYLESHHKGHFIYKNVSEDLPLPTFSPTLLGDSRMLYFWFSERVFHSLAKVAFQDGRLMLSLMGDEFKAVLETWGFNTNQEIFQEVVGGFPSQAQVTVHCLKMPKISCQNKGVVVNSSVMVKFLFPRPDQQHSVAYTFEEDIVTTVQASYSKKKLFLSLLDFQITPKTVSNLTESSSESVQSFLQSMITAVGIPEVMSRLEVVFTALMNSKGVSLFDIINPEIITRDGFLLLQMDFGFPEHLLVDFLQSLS
Description: The effect of compound 24 on inhibition of CETP was tested using a purified CETP preparation. CETP was purified and assayed according to procedures described in Tomada, H.; Tabata, N.; Shinose, M.; Takahashi Y.; Woodruff, H. B.; Omura, S. J. Antibiotics, 52: 1101-1107 (1999).

Sprague-Dawley rats = experiment: Observation of behaviour and visual examination of organs of infused rats; assay type: in vivo, rat
From the text: Rats were sacrificed at the day end of the infusion, and the intestine and other organs were dissected and visually examined.

[2] = tested on: cholesterol ester transfer protein (CETP); experiment: CETP activity, crude CETP preparation derived from hamster plasma; assay type: biochemical; conditions: in vitro
Description: The inhibitory effect of compound 1 on the activity of cholesterol ester transfer protein (CETP) was measured, using a crude CETP preparation derived from hamster plasma.

[3] = tested on: lymphatic absorption of cholesterol; experiment: Lymphatic absorption of 14C-cholesterol in lymph-cannulated rats infused with lipid emulsion; assay type: in vivo, rat
Description: (§1) Ten male Sprague-Dawley rats (Harlan Sprague Dawley, Inc., Indianapolis, Ind.) weighing 274.3±7.8 grams were housed individually in plastic cages in an environmentally controlled room of illumination (12:12-h light/dark cycle with the dark period from 0330 to 1530), humidity (60-70%), and temperature (22-25° C.) throughout the study. Rats had free access to deionized water and a nutritionally adequate diet (Table 1) containing soybean oil as the fat source and egg white as the protein source. The diet was formulated according to AIN-93G recommendations (In: Trace Elements in Laboratory Rodents (Watson, R. R., ed.), pp. 3-37. CRC Press, Boca Raton, Fla.). Animals were cared for in an animal care facility accredited by the American Association for the Accreditation of Laboratory Animal Care. Rats were maintained in accordance with the policies and guidelines for animal care and use procedures of the Kansas State University Institutional Animal Care and Use Committee.
At 6 wk, rats were starved overnight for 17 h but allowed water ad libitum prior to the surgical placement of a lymph cannula and duodenal infusion catheter. The mesenteric lymph duct was cannulated as described in Koo et al., J. Nutr. 131: 717-722 (2001). Briefly, while rats were under anesthesia (2.0% halothane in 2.0 L O2/min delivered via a halothane vaporizer), a midline abdominal incision was made. […] The cannula was fixed in place with ethyl cyanoacrylate glue (Elmer's Products, Columbus, Ohio) and externalized through the right flank. An indwelling infusion catheter (Silastic® laboratory tubing, i.d. 1.0 mm, o.d. 2.2 mm; Dow Coming, Midland, Mich.) was introduced via the gastric fundus into the upper duodenum and secured in place with a purse-string suture (4-0 Silk, Ethicon, Somerville, N.J.) around the fundic incision. The infusion catheter was exteriorized alongside the lymph cannula. After the abdominal incision was closed, the rats were placed in restraining cages and housed in a recovery chamber at 30° C. for postoperative recovery for 22-24 h. During the recovery period, rats were infused continuously with glucose in phosphate buffered saline (PBS) (in mmol/L: 277 glucose, 6.75 Na2HPO4, 16.5 NaH2PO4, 115 NaCl, and 5 KCl; pH 6.7) v infusion catheter at 3.0 mL/h by a syringe pump (Harvard Apparatus, Model 935, South Natick, Mass.) to ensure adequate hydration and nutritional status of the animals.
After postoperative recovery, each rat was infused with a lipid emulsion at 3 mL/h for 8 h via the duodenal catheter in subdued light. The lipid emulsion consisted of 451.8 μmol triolein (95%, Sigma Chemical, St. Louis, Mo.), 33.3 kBq [4-^14C]-cholesterol (^14C-CH; specific activity, 1.85 GBq/mmol, American Radiolabeled Chemicals, St. Louis, Mo.), 20.7 μmol cholesterol, 3.1 μmol α-tocopherol (all-rac-dl-α-tocopherol, 97%, Aldrich Chemical, Milwaukee, Wis.) as an antioxidant, and 396.0 μmol sodium taurocholate (Sigma Chemical, St. Louis, Mo.) in 24 mL of PBS buffer, pH 6.5. For half of the rats, the lipid emulsion contained 114.9 μmol compound 1 (41.9 mg). Lipid emulsion was prepared under a gentle N2 stream and subdued light for 55 min using a microprocessor-controlled ultrasonicator equipped with a microtip (XL-2020 Ultrasonic Liquid Processor, Misonix, Farmingdale, N.Y.).
(§2) During the duodenal infusion of lipid emulsion, lymph samples were collected hourly in preweighed ice-chilled centrifuge tubes containing 4 mg Na2-EDTA and 30 μg n-propyl gallate (Sigma Chemical, St. Louis, Mo.) as antioxidants. A portion of each lymph sample (100 μL) was mixed with scintillation liquid (ScintiVerse; Fisher Scientific, Fair Lawn, N.J.) and counted by scintillation spectrometry (Beckman LS-6500; Beckman Instruments, Fullerton, Calif.). The total ^14C-radioactivity appearing in hourly lymph volume (the hourly rates of ^14C-CH absorption) was expressed as a percentage of the total radioactivity infused (% dose). All samples were ice chilled and handled in subdued light. […]

[4] = tested on: lymphatic absorption of oleic acid; experiment: Lymphatic absorption of oleic acid (triolein) in lymph-cannulated rats, fatty acid analysis of lymph; assay type: in vivo, rat
Description: as §1, with “Animals were cared for in an animal care facility accredited by the American Association for the Accreditation of Laboratory Animal Care. Rats were maintained in accordance with the policies and guidelines for animal care and use procedures of the Kansas State University Institutional Animal Care and Use Committee.” left out
as §2, with “dose).” for “dose). All samples were ice chilled and handled in subdued light.”

[5] = rats, 8 h duodenal infusion of lipid emulsion with 114.9 μmol (41.9 mg) compound 1, means ± SD, n = 5

Row | SMILES | IC50 [1] [µM] | abnormalities of intestine and other organs, visual examination (Sprague-Dawley rats; rats sacrificed at end of infusion) | gross motor or behavioral abnormalities (Sprague-Dawley rats; rats, 8 h infusion) | dose above which HDL total cholesterol, HDL free cholesterol and HDL cholesterol ester increased [2] | 14C-cholesterol absorbed, cumulative ([3]; 1 h, rats, means ± SD, n = 5) [% dose] | 14C-cholesterol absorbed, cumulative ([3]; 2 h, rats, means ± SD, n = 5) [% dose] | 14C-cholesterol absorbed, cumulative ([3]; 3 h, rats, means ± SD, n = 5) [% dose] | 14C-cholesterol absorbed, cumulative ([3]; 4 h, rats, means ± SD, n = 5) [% dose] | 14C-cholesterol absorbed, cumulative ([3]; 5 h, rats, means ± SD, n = 5) [% dose] | 14C-cholesterol absorbed, cumulative ([3]; 6 h, rats, means ± SD, n = 5) [% dose] | 14C-cholesterol absorbed, cumulative ([3]; 7 h, rats, means ± SD, n = 5) [% dose] | 14C-cholesterol absorbed, cumulative ([3]; 8 h, rats, means ± SD, n = 5) [% dose] | percent cholesterol absorption ([3]; after 8 hours of treatment, 41.9 mg of compound 1, control 37.69%) [%] | total cholesterol absorption compared to control rats ([3]; rats infused for eight hours) | 14C-CH absorption [3, 5] [% dose/8 h] | absorption of triolein compared to control rats ([4]; rats infused for eight hours) | Oleic acid absorbed in lymph [4, 5] [μmol/8 h]
1 | C=Cc1ccc(OC(=O)c2ccc(O)c(N=O)c2)cc1.C=Cc1ccc(OC(=O)c2ccc(O)c(N=O)c2)cc1.C=Cc1ccc(OC(=O)c2ccc(O)c(N=O)c2)cc1.[Fe+2] [Ferroverdin A, reference compound] | ~22 |  |  |  |  |  |  |  |  |  |  |  |  |  |  |  | 
2 | CC1(C)CCC[C@]2(C)C3=CC4=C(Cl)C(=O)C(=O)C=C4O[C@]3(C)CC[C@@H]12 [Compound 24, (4aS,6aR,12aR,12bS)-2H-11-Chloro-1,3,4,4a,5,6,6a,9,10,12b-decahydro-4,4,6a,12b-tetramethyl-benzo[a]xanthene-9,10-dione] | 31 |  |  |  |  |  |  |  |  |  |  |  |  |  |  |  | 
3 | CC1(C)CCC[C@]2(C)C3=Cc4c(cc(O)c(O)c4Cl)O[C@]3(C)CC[C@@H]12 [Compound 1, (4aS,6aR,12bS)-2H-11-Chloro-1,3,4,4a,5,6,6a,12b-octahydro-4,4,6a,12b-tetramethyl-benzo[a]xanthene-9,10-diol] |  | No abnormalities were found | no gross motor or behavioral abnormalities | exceeded 250 μM | 0.12 ± 0.04 | 1.22 ± 0.25 | 2.70 ± 0.42 | 4.18 ± 0.92 | 5.68 ± 1.37 | 7.32 ± 1.78 | 9.13 ± 2.41 | 10.95 ± 3.29 | 10.95 | significantly less | 10.95 ± 3.29 | significantly less | 253 ± 79
